From PubChem BioAssay (NCI)
Where “and” joins values, the source holds several entries; their conditions need not be identical. Identical values can stand only once.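 Cultured in 96-well plates, cells were exposed to test compound for 48 hours across five concentrations. Abbreviation: GI50, concentration required for 50% inhibition of growth. At the TGI there is no net growth.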

What was measured:
Experiment in all cases: NCI-60 cell line screen, 48 h
U251 CNS = tested on: U251 CNS
HCT-116 colon = tested on: HCT-116 colon
K-562 leukemia = tested on: K-562 leukemia
ACHN renal = tested on: ACHN renal
HL-60(TB) leukemia = tested on: HL-60(TB) leukemia
KM12 colon = tested on: KM12 colon
SF-268 CNS = tested on: SF-268 CNS
SNB-19 CNS = tested on: SNB-19 CNS
NCI-H23 lung = tested on: NCI-H23 lung
SF-539 CNS = tested on: SF-539 CNS

Row | SMILES | GI50 (U251 CNS) | TGI (U251 CNS) | GI50 (HCT-116 colon) | TGI (HCT-116 colon) | GI50 (K-562 leukemia) | TGI (K-562 leukemia) [µM] | GI50 (ACHN renal) | TGI (ACHN renal) | GI50 (HL-60(TB) leukemia) | TGI (HL-60(TB) leukemia) | GI50 (KM12 colon) | TGI (KM12 colon) | GI50 (SF-268 CNS) | TGI (SF-268 CNS) | GI50 (SNB-19 CNS) | TGI (SNB-19 CNS) [µM] | GI50 (NCI-H23 lung) | TGI (NCI-H23 lung) | GI50 (SF-539 CNS) | TGI (SF-539 CNS)
1 | C=C(C(=O)c1ccccc1)C(NC(C)(C)C)c1ccccc1 (stereo not drawn) | 2.2 µM | 6.21 µM | 1.33 µM | 2.92 µM | 1.91 µM | 11.5 | 1.59 µM | 4.51 µM | 2.03 µM | 7.82 µM | 2.22 µM | 6.36 µM | 3.61 µM | 18.6 µM | 4.2 µM | 16 | 1.77 µM | 4.93 µM | 3.21 µM | 8.36 µM
2 | CC(C)n1cc(-c2ccc3c(c2)N(C)CC3)c2c(NS(=O)(=O)c3ccn(C)n3)ccnc21 | 61.9 µM | > 100 µM | 48 µM | > 100 µM | 79.9 µM | > 100 | 49.8 µM | > 100 µM | 59.2 µM | > 100 µM | 47.9 µM | > 100 µM | 62 µM | > 100 µM | > 100 µM | > 100 | 74.6 µM | > 100 µM | 64.4 µM | > 100 µM
3 | CC(=O)OC1C(O)C(C)OC(OC2C(OC(=O)C3CCC4C(C3)OC3(CC(OC(=O)/C=C/c5ccccc5)C(C)CO3)C43CO3)OC(C)C(O)C2OC(C)=O)C1O (stereo not drawn) |  | 0.0493 µM |  | 0.0785 µM |  | 0.241 |  | 0.648 µM |  | 0.0192 µM |  | 0.0562 µM |  | 0.0499 µM |  | 0.0316 |  | 0.0615 µM |  | 0.0285 µM
4 | O=C1NC(c2ccc3ccccc3c2)Nc2ccccc21 (stereo not drawn) |  | > 100 µM |  | > 100 µM |  | 7.04 |  | > 100 µM |  | > 100 µM |  | > 100 µM |  | > 100 µM |  | > 100 |  | > 100 µM |  | > 100 µM
5 | CCN1CCN(Cc2ccc(NC(=O)Nc3nc(-c4cc(OC)c(OC)c(OC)c4)cs3)cc2C(F)(F)F)CC1 | 1.37 µM | 2.81 µM | 1.48 µM | 2.84 µM | 0.42 µM | 1.92 | 1.91 µM | 4.1 µM | 1.94 µM | 4.25 µM | 1.65 µM | 3.35 µM | 1.87 µM | 5.76 µM | 1.75 µM | 3.43 | 1.69 µM | 3.59 µM | 1.69 µM | 3.12 µM
6 | COc1ccc2[nH]c(C(=O)OCc3ccc4c(Br)cc(Br)c(O)c4n3)cc2c1 | 1.49 µM | 2.92 µM | 0.187 µM | 0.543 µM | 0.495 µM | 4.94 | 0.343 µM | 1.35 µM | 0.7 µM | 3.41 µM | 1.64 µM | 3.38 µM | 1.48 µM | 2.92 µM | 1.5 µM | 2.89 | 1.38 µM | 2.99 µM | 0.768 µM | 2.05 µM
7 | CCOc1cc(Cl)c(C(C)NC(=O)c2cccc(OC)c2)cc1OCC (stereo not drawn) | 8.18 µM | > 100 µM | 4.48 µM | > 100 µM | 3.9 µM | > 100 | 20.1 µM | > 100 µM | 3.96 µM | > 100 µM | 7.19 µM | > 100 µM | 23.6 µM | > 100 µM | 12.6 µM | > 100 | 21.7 µM | > 100 µM | 5.01 µM | 34.3 µM
8 | CN1C(=O)C(N=Nc2ccc([N+](=O)[O-])cc2)SC1=S (stereo not drawn) | 3.3 µM and 7.63 µM | 70.8 µM and > 100 µM | 3.65 µM and 6.79 µM | 29 µM and 66.3 µM | 0.625 µM and 2.17 µM | > 100 | 3.19 µM and 9.51 µM | 99 µM and 62.4 µM | 0.678 µM and 2.84 µM | 8.68 µM and 8.38 µM | 1.81 µM and 2.53 µM | 17.4 µM and > 100 µM | 6.1 µM and 17.3 µM | 99.5 µM and > 100 µM | 6.62 µM and 11 µM | > 100 | 3.89 µM and 7.46 µM | 77.1 µM and 76.9 µM | 6.57 µM and 7.08 µM | 58.1 µM and 70.4 µM
9 | COc1cc2c(Nc3ccc(-c4ccc(N)cc4)cc3)ncnc2c(OC)c1OC | 7.93 µM | > 100 µM | 3.79 µM | 55.3 µM | 0.521 µM | > 100 | 1.76 µM | > 100 µM | 2.54 µM | 20.4 µM | 0.615 µM | 41.6 µM | 19.1 µM | > 100 µM | 7.76 µM | > 100 | 19.5 µM | > 100 µM | 2.42 µM | > 28.7 µM
10 | CS(=O)(=O)Nc1cc(-c2ccc3ncc(C#N)c(Nc4ccc(F)c(Cl)c4)c3c2)cnc1Cl | 0.098 µM | 1.19 µM | 0.0486 µM |  | 0.201 µM | > 100 | 0.304 µM | > 100 µM | 0.12 µM | 0.741 µM | 0.276 µM | 1.91 µM | 0.133 µM |  | 0.212 µM | 1.64 | 0.108 µM | 3.91 µM | 0.109 µM | 0.79 µM
